In patent publication US20140106440A1, “ENHANCED ENZYMATIC CO2 CAPTURE TECHNIQUES ACCORDING TO SOLUTION PKA, TEMPERATURE AND/OR ENZYME CHARACTER” (CO2 SOLUTIONS INC., priority 2011, published 2014):
Where “and” joins values, the source holds several entries; their conditions need not be identical. Equal entries are not always repeated. Where two headings read alike, the source gives them in different places.

Key:
[1] = forward reaction with CO2; 2 kmol/m^3 MDEA solution at 298 K; cited from earlier work
[2] = Second-order kinetic rate constant of the reaction between alkanolamine and CO2 (no enzyme); format: physicochemical
[3] = cited from earlier work

Compound: O [H2O, water]
- 1st order rate constant [1]: 0.026 s⁻¹

Compound: CN(C)CCO [DMMEA, dimethylethanolamine]
- k2, second-order kinetic rate constant of the reaction between amine and CO2 ([2]; amine concentration 1.0 kmol m^−3): 19.5 m^3 kmol^−1 s^−1
- k2, second-order kinetic rate constant of the reaction between amine and CO2 ([2]; amine concentration 2.0 kmol m^−3): 18.8 m^3 kmol^−1 s^−1
- pKa ([3]; Table 3): 9.2
- pKa ([3]; Table 4): 9.2
- pKa ([3]; Table 14): 9.22

Compound: O [OH^−, hydroxide]
- 1st order rate constant [1]: 23.8 s⁻¹
- 2nd order rate constant [1]: 8.35 m^3mol^−1s^−1

Compound: CCN(CC)CCO [DEMEA, diethylethanolamine]
- k2, second-order kinetic rate constant of the reaction between amine and CO2 [2]: 33.0 m^3 kmol^−1 s^−1 and 35.5 m^3 kmol^−1 s^−1 and 33.1 m^3 kmol^−1 s^−1

Compound: CC(O)CN(CC(C)O)CC(C)O (stereo not shown) [TIPA, tri-isopropanolamine]
- k2, second-order kinetic rate constant of the reaction between amine and CO2 [2]: 1.02 m^3 kmol^−1 s^−1 and 0.79 m^3 kmol^−1 s^−1
